According to patent US4060652A (priority 1976, dated 1977):
Read-outs that look alike come from different tables or passages of the source.

Assays:
[1] = tested on: nervomuscular conduction, anterior tibial muscle; assay: Neostigmin antagonism of nervomuscular block in cats; format: in vivo
Description: (§1) Cats were narcotized (with chloralose, 50 mg per kg body weight, and urethane, 500 mg/kg, intraperitoneally) or decerebrated at the quadrigeminal bodies level. The lungs were ventilated artificially whenever necessary. Contractions of the anterior tibial muscle were recorded in isotonic concitions in response to electric stimulation of the peripheral part of n. peroneus with supramaximum pulses of 0.1 msec at a frequency of 0.1-100 Hz.
For example, even with a 5-fold dose of tercuronium, muscle contractility was restored already in 2 to 5 minutes following a single injection of neostigmin in a dose of 0.1 mg/kg, and in 15-20 minutes the recovery of the contactile function was complete.
In the case of pancuronium and α-tubocurarin, the restoration within these short periods of time could only be attained with 2-3 fold doses of these muscle relaxants. If the dose of pancuronium was increased 4 to 5 times, weak contractions of the muscle were observed not sooner than in 9 to 10 minutes and the contraction was, restored completely only 30 minutes after the injection of neostigmin (six experiments). The restoration of muscle contractility is delayed even longer in the case of α-tubocurarin.

[2] = tested on: nervomuscular conduction, vegetative ganglia, circulation; assay: Overall conclusions from animal experiments; format: in vivo, animals
From the text: The results of the pharmacological studies of the proposed muscle relaxant Tercuronium, as compared with the known muscle relaxants, enable us to make the following conclusions.

[3] = tested on: arterial pressure; assay: Effect on arterial pressure in cats and rabbits; format: in vivo
Description: Experiments were carried out on narcotized cats and rabbits (50 mg/kg of chloralose and 500 mg/kg urethane, intraperitoneally) and also on cats decerebrated at the quadrigeminal level. The blood pressure in the carotid artery was recorded with a mercury pressure gauge. The preparations were injected intravenously.
When Tercuronium was given in a quantity ten times exceeding the myoparalytic dose (0.8 mcM/kg) an insignificant and transient reduction (10 to 20 mm Hg) of the blood pressure was observed. The animals (7 cats and 5 rabbits) tolerated injections of very large doses of Tercuronium, viz., 10-20 mcM/kg, which is 200 times higher than the myoparalytic dose. […] In all experiments, in 1 to 2 hours, the arterial pressure restored completely or was close to the initial level.

[4] = Effect on sympathetic ganglia, third eyelid contraction in cats; format: in vivo; settings: cat, in vivo, iv, read-out: ganglioblocking dose as multiple of myoparalytic dose
Description: Experiments were carried out on narcotized cats. A peripheral part of the sympathetic column on the neck was stimulated with electric pulses at 5 Hz. The duration of the stimulus was 1 msec, the amplitude 5 V. The contractions of the third eyelid (nictiating membrane) and the arterial (carotid) pressure were recorded with a mercury pressure gauge. We determined the intravenous dose of Tercuronium, α-tubocurarin and pancuronium that decreased the height of contraction of the third eyelid by 50 to 60 percent in conditions of prolonged stimulation of the sympathetic column.

[5] = tested on: respiration; assay: Inhibition of respiration in narcotized and decerebrated cats (and rabbits); format: in vivo
From the text: This developed simultaneously with the block of the nervomuscular conduction in the anterior tibial muscle. […] The same result was obtained in experiments on rabbits. The ratio of LD50 in experiments on rabbits and mice, as specified above, also provides data on the that Tercuronium produces on respiration.

[6] = Lethality by paralysis of respiratory muscles in rabbits; settings: rabbit, in vivo
From the text: In another series of experiments, we determined the intravenous dose of the muscle relaxants that caused death of 50% of the animals due to paralysis of the respiratory muscles -- lethal dose 50% (LD50).

[7] = Lethality by paralysis of respiratory muscles in mice; settings: mouse, in vivo, iv
From the text: (§2) In experiments on albino mice, the dose of Tercuronium injected into the tail vein, that inhibited the symptom of turning from the lateral position in 50 percent of mice (ED50) was 0.06 mcM/kg (18 experiments); and 50 percent of mice perished from paralysis of the respiratory muscles (LD50) following an injection of 0.09 mcM/kg of Tercuronium.

[8] = tested on: nervomuscular conduction, ganglia, circulation; settings: cited from earlier work
[9] = tested on: nervomuscular conduction, anterior tibial muscle; assay: Nervomuscular block in cats, indirect stimulation of anterior tibial muscle; format: in vivo
Description: The preparation was studied in acute experiments on cats, rabbits, mice and pigeons, in experiments on phrenico-diaphragm preparations of rats, and also on the straight muscle of a frog abdomen. The properties of Tercuronium were compared with those of α-tubocurarin and pancuronium.
as §1

[10] = tested on: albino mice; assay: Inhibition of turning from the lateral position in mice; format: in vivo; settings: Mus musculus, iv; mice, turning from the lateral position; read-out: ED50
From the text: as §2

[11] = tested on: rabbits; assay: Head-drop test in non-narcotized rabbits; format: in vivo
Description: In experiments (a total of twenty) on non-narcotized rabbits, the head-drop dose (HDD) was 0.022 ± 0.009 micromole/kg A complete blocking effect developed 1.5 to 2 minutes after administration of Tercuronium and persisted for 3 to 5 minutes. A few minutes later, the animal behaviour normalized. The same effect was attained with 0.18 ± 0.02 micromole/kg of α-tubocurarin (6 experiments) and 0.018 ± 0.001 mcM/kg of pancuronium (6 experiments). The time of onset and the duration of the blocking effect with all the three preparations were the same.

With `CC(=O)O[C@H]1C[C@@H]2CC[C@@H]3[C@H](CC[C@@]4(C)[C@H]3C[C@H]([N+]3(C)CCCCC3)[C@@H]4OC(C)=O)[C@@]2(C)C[C@@H]1[N+]1(C)CCCCC1` [pancuronium, reference compound] as the molecule, how does the “multiple of dose at which restoration within the short periods could be attained” value ([1]; cats, neostigmin) read?
Its value is 2-3 fold.

And the “time to complete restoration of contraction after neostigmin” value ([1]; dose increased 4 to 5 times, six experiments)?
The value was 30 min.

What about the “number of myoparalytic doses whose blocking effect is completely removed by neostigmin” value ([1]; neostigmin 0.1 mg/kg intravenous, within five minutes) of the same molecule?
The value was “three”.

And the “arterial pressure and pulse rate” value ([2]; in vivo)?
Its value is “stable rise in the arterial pressure, which results in increased hemorrhage in surgical operations and in accelerated pulse rate”.

And the “histamine, vegetative ganglia, blood pressure and heart frequency” value ([2]; myoparalytic dose)?
The value was “do not produce histamine or block vegetative ganglia”.

And the “effect on arterial pressure of 20-fold dose” value ([3]; 20-fold dose)?
Its value is “moderately depressive”.

And the “arterial pressure on doses that inhibit respiration” value ([3]; active ventilation of the lungs)?
The value was “asphyxial rise in the arterial pressure”.

What about the “effect on arterial pressure of myoparalytic (complete block) dose” value ([3]; artificial ventilation) of the same molecule?
Its value is “the arterial pressure did not drop either”.

What about the selectivity ratio [4] of the same molecule?
Its selectivity ratio is 30.

And the “inhibition of respiration by blocking doses, comparison” value ([5]; from LD50 to ED50 ratio)?
Its value is “equally inhibit respiration”.

And the effect on respiration ([5]; narcotized and decerebrated cats)?
The effect on respiration was “The same effect was observed”.

What about the LD50 ([6]; intravenous) of the same molecule?
The LD50 was 0.026 µmol/kg.

And the selectivity ratio ([6]; read-out: LD50 to HDD ratio)?
The selectivity ratio was 1.4.

And the LD50 [7]?
The LD50 was 0.062 µmol/kg.

What about the selectivity ratio ([7]; read-out: width of the muscle relaxing action (LD50/ED50)) of the same molecule?
The selectivity ratio was 1.5.

And the “conditions for tracheal intubation” value ([8]; 0.15 mg/kg)?
Its value is “favourable conditions for tracheal intubation are provided”.

What about the “duration of myoparalytic action” value ([8]; background) of the same molecule?
The value was “lasts for the same period of time as that of α-tubocurarin”.

And the “fold less active than α-tubocurarin in blocking conduction in sympathetic ganglia” value ([8]; background)?
Its value is 2.5 times.

What about the “histamine release, ganglia and circulatory effects” value (from here on “histamine release”) ([8]; background) of the same molecule?
Its value is “often accelerates the pulse rate and increases arterial pressure”.

And the “removal of myoparalytic action by proserpin” value ([8]; background)?
The value was “can be removed with proserpin, and cases with difficult decurarization occur less frequently than with α-tubocurarin”.

And the “histamine release” value ([8]; background, listed as Pancuronium)?
The value was “does not induce production of histamine from tissues, nor does it lower arterial pressure”.

What about the “mean duration of effect” value [9] of the same molecule?
The value was “nine”.

And the ED (95-100) ([9]; Felis catus, intravenous, 0.1 Hz, read-out: dose blocking nervomuscular conduction (95-100 percent))?
The ED (95-100) was 0.04 ± 0.001 µmol/kg.

What about the ED50 [10] of the same molecule?
The ED50 was 0.042 µmol/kg.

What about the ED (head drop) ([11]; Oryctolagus cuniculus, non-narcotized rabbits, read-out: head-drop dose (HDD)) of the same molecule?
Its ED (head drop) is 0.018 ± 0.001 µmol/kg.

What about the “time of onset and duration of blocking effect, comparison” value ([11]; all three preparations) of the same molecule?
The value was “the same”.

Which “histamine release” value ([8]; background) does the source give for `CC[N+](CC)(CC)CCOc1cccc(OCC[N+](CC)(CC)CC)c1OCC[N+](CC)(CC)CC` [pyrolaxon] here?
Its value is “blocks parasympathetic ganglia and produces tachycardia”.

Which “duration of action in patients with hepatic dysfunction and low cholinesterase” value ([8]; common dose) does the source give for `C[N+](C)(C)CCOC(=O)CCC(=O)OCC[N+](C)(C)C` [succinylcholine, dicholine ester of succinic acid] here?
Its value is “can last for a period of a few hours”.
